Laboratory results reported in US10358434B2, “2-(3-pyridinyl)-1H-benzimidazole derivative compound and medicament containing same” (NIHON MEDI-PHYSICS CO., LTD., priority 2014, dated 2019).

Key:
[1] = Plasma stability evaluation (TLC analysis); type: in vitro ADME; details: 37° C., 60 minutes
Protocol: Evaluation was made using a heparin-treated normal human plasma pool (Kohjin Bio Co., Ltd.). Compounds [^18F] 100, [^18F] 200, [^123I] 400, [^18F] 500, and [^123I] 601 to 610 obtained by the methods shown in Examples 2, 4, 7, 9, 11, 13, 15, 17, 19, 21, 23, 25, 27, and 29 were each added to the aforementioned human plasma (5 mL), and the obtained mixture was then incubated at 37° C. for 60 minutes. Thereafter, the mixture was centrifuged with addition of methanol, so that a deproteinization treatment was carried out. Thereafter, stability was evaluated by TLC analysis. As TLC analysis conditions, the TLC analysis conditions applied upon the above described synthesis of each compound were applied.

[2] = In vivo kinetics experiment (radioactivity distribution); set-up: species or system Wistar male rat; details: rat; for Adrenal gland/blood ratio of radioactivity accumulation / Adrenal gland/fat ratio of radioactivity accumulation / Adrenal gland/kidney ratio of radioactivity accumulation / Adrenal gland/liver ratio of radioactivity accumulation / Adrenal gland/muscle ratio of radioactivity accumulation / Adrenal gland/small intestine ratio of radioactivity accumulation / Radioactivity distribution Adrenal gland / Radioactivity distribution Bladder (including urine) / Radioactivity distribution Blood / Radioactivity distribution Fat / Radioactivity distribution Femur / Radioactivity distribution Heart / Radioactivity distribution Kidney / Radioactivity distribution Large intestine / Radioactivity distribution Liver / Radioactivity distribution Lung / Radioactivity distribution Muscle (lower limbs) / Radioactivity distribution Remaining whole body / Radioactivity distribution Small intestine / Radioactivity distribution Spleen / Radioactivity distribution Stomach / Radioactivity distribution Testis / Radioactivity distribution Whole brain: caudal vein
Procedure, shortened: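 Tissue radioactivity (% ID/g) and adrenal-to-blood, liver, kidney, small intestine, muscle and fat ratios determined at 10, 30 and 60 min post-dose. Tracers (approximately 1 to 3.7 MBq, saline with 1 w/v % ascorbic acid) injected i.v. into caudal vein of anesthetized 9-week male Wistar rats; organs excised, weighed, counted.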

[3] = system: human adrenal gland section expressing aldosterone-producing adenoma; test: In vitro autoradiography using human adrenal adenoma; type: binding
Procedure, shortened: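 Autoradiography readout: PSL in equal-sized ROIs over adenoma (B2) and normal adrenal cortex (B1), expressed as B2/B1 and decay-corrected using half-life, applied activity and plate contact time. Tissue was surgically excised human adrenal, frozen and cut at 7 μm, incubated 10 min with 5-33 kBq/mL tracer in BSA-containing PBS, then imaged after 16-20 h exposure.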

Radiochemical purity after incubation in human plasma ([1]; TLC analysis): 88% | Adrenal gland/blood ratio of radioactivity accumulation ([2]; 10 min after administration): 158.10 ± 31.05 | Adrenal gland/fat ratio of radioactivity accumulation ([2]; 10 min after administration): 210.51 ± 56.26 | Adrenal gland/kidney ratio of radioactivity accumulation ([2]; 10 min after administration): 14.57 ± 3.27 | Adrenal gland/liver ratio of radioactivity accumulation ([2]; 10 min after administration): 3.45 ± 0.50 | Adrenal gland/muscle ratio of radioactivity accumulation ([2]; 10 min after administration): 74.08 ± 27.27 | Adrenal gland/small intestine ratio of radioactivity accumulation ([2]; 10 min after administration): 13.90 ± 1.21 | Radioactivity distribution Adrenal gland ([2]; 10 min after administration): 18.45 ± 3.39 % ID/g | Radioactivity distribution Bladder (including urine) ([2]; 10 min after administration): 0.86 ± 0.38 % ID/g | Radioactivity distribution Blood ([2]; 10 min after administration): 0.12 ± 0.02 % ID/g | Radioactivity distribution Fat ([2]; 10 min after administration): 0.09 ± 0.02 % ID/g | Radioactivity distribution Femur ([2]; 10 min after administration): 0.25 ± 0.01 % ID/g | Radioactivity distribution Heart ([2]; 10 min after administration): 0.31 ± 0.03 % ID/g | Radioactivity distribution Kidney ([2]; 10 min after administration): 1.28 ± 0.08 % ID/g | Radioactivity distribution Large intestine ([2]; 10 min after administration): 0.23 ± 0.03 % ID/g | Radioactivity distribution Liver ([2]; 10 min after administration): 5.32 ± 0.21 % ID/g | Radioactivity distribution Lung ([2]; 10 min after administration): 0.68 ± 0.08 % ID/g | Radioactivity distribution Muscle (lower limbs) ([2]; 10 min after administration): 0.27 ± 0.08 % ID/g | Radioactivity distribution Remaining whole body ([2]; 10 min after administration): 0.20 ± 0.02 % ID/g | Radioactivity distribution Small intestine ([2]; 10 min after administration): 1.32 ± 0.13 % ID/g | Radioactivity distribution Spleen ([2]; 10 min after administration): 0.93 ± 0.10 % ID/g | Radioactivity distribution Stomach ([2]; 10 min after administration): 0.86 ± 0.06 % ID/g | Radioactivity distribution Testis ([2]; 10 min after administration): 0.06 ± 0.01 % ID/g | Radioactivity distribution Whole brain ([2]; 10 min after administration): 0.02 ± 0.00 % ID/g | Adrenal gland/blood ratio of radioactivity accumulation ([2]; 30 min after administration): 206.39 ± 28.57 | Adrenal gland/fat ratio of radioactivity accumulation ([2]; 30 min after administration): 295.05 ± 101.53 | Adrenal gland/kidney ratio of radioactivity accumulation ([2]; 30 min after administration): 19.08 ± 3.40 | Adrenal gland/liver ratio of radioactivity accumulation ([2]; 30 min after administration): 4.39 ± 0.61 | Adrenal gland/muscle ratio of radioactivity accumulation ([2]; 30 min after administration): 160.44 ± 36.00 | Adrenal gland/small intestine ratio of radioactivity accumulation ([2]; 30 min after administration): 5.99 ± 1.25 | Radioactivity distribution Adrenal gland ([2]; 30 min after administration): 20.88 ± 2.82 % ID/g | Radioactivity distribution Bladder (including urine) ([2]; 30 min after administration): 2.02 ± 1.20 % ID/g | Radioactivity distribution Blood ([2]; 30 min after administration): 0.10 ± 0.01 % ID/g | Radioactivity distribution Fat ([2]; 30 min after administration): 0.07 ± 0.02 % ID/g | Radioactivity distribution Femur ([2]; 30 min after administration): 0.14 ± 0.01 % ID/g | Radioactivity distribution Heart ([2]; 30 min after administration): 0.25 ± 0.02 % ID/g | Radioactivity distribution Kidney ([2]; 30 min after administration): 1.10 ± 0.08 % ID/g | Radioactivity distribution Large intestine ([2]; 30 min after administration): 0.28 ± 0.04 % ID/g | Radioactivity distribution Liver ([2]; 30 min after administration): 4.76 ± 0.15 % ID/g | Radioactivity distribution Lung ([2]; 30 min after administration): 0.44 ± 0.02 % ID/g | Radioactivity distribution Muscle (lower limbs) ([2]; 30 min after administration): 0.13 ± 0.01 % ID/g | Radioactivity distribution Remaining whole body ([2]; 30 min after administration): 0.11 ± 0.01 % ID/g | Radioactivity distribution Small intestine ([2]; 30 min after administration): 3.54 ± 0.51 % ID/g | Radioactivity distribution Spleen ([2]; 30 min after administration): 0.41 ± 0.06 % ID/g | Radioactivity distribution Stomach ([2]; 30 min after administration): 1.11 ± 0.14 % ID/g | Radioactivity distribution Testis ([2]; 30 min after administration): 0.08 ± 0.01 % ID/g | Radioactivity distribution Whole brain ([2]; 30 min after administration): 0.01 ± 0.00 % ID/g | Adrenal gland/blood ratio of radioactivity accumulation ([2]; 60 min after administration): 214.22 ± 75.71 | Adrenal gland/fat ratio of radioactivity accumulation ([2]; 60 min after administration): 371.37 ± 112.38 | Adrenal gland/kidney ratio of radioactivity accumulation ([2]; 60 min after administration): 17.62 ± 3.44 | Adrenal gland/liver ratio of radioactivity accumulation ([2]; 60 min after administration): 7.45 ± 2.80 | Adrenal gland/muscle ratio of radioactivity accumulation ([2]; 60 min after administration): 210.35 ± 70.86 | Adrenal gland/small intestine ratio of radioactivity accumulation ([2]; 60 min after administration): 4.17 ± 1.22 | Radioactivity distribution Adrenal gland ([2]; 60 min after administration): 21.41 ± 4.42 % ID/g | Radioactivity distribution Bladder (including urine) ([2]; 60 min after administration): 3.87 ± 0.37 % ID/g | Radioactivity distribution Blood ([2]; 60 min after administration): 0.10 ± 0.02 % ID/g | Radioactivity distribution Fat ([2]; 60 min after administration): 0.06 ± 0.02 % ID/g | Radioactivity distribution Femur ([2]; 60 min after administration): 0.12 ± 0.03 % ID/g | Radioactivity distribution Heart ([2]; 60 min after administration): 0.24 ± 0.04 % ID/g | Radioactivity distribution Kidney ([2]; 60 min after administration): 1.23 ± 0.22 % ID/g | Radioactivity distribution Large intestine ([2]; 60 min after administration): 0.41 ± 0.09 % ID/g | Radioactivity distribution Liver ([2]; 60 min after administration): 3.08 ± 0.99 % ID/g | Radioactivity distribution Lung ([2]; 60 min after administration): 0.48 ± 0.04 % ID/g | Radioactivity distribution Muscle (lower limbs) ([2]; 60 min after administration): 0.11 ± 0.03 % ID/g | Radioactivity distribution Remaining whole body ([2]; 60 min after administration): 0.10 ± 0.02 % ID/g | Radioactivity distribution Small intestine ([2]; 60 min after administration): 5.36 ± 1.39 % ID/g | Radioactivity distribution Spleen ([2]; 60 min after administration): 0.32 ± 0.09 % ID/g | Radioactivity distribution Stomach ([2]; 60 min after administration): 1.66 ± 0.45 % ID/g | Radioactivity distribution Testis ([2]; 60 min after administration): 0.11 ± 0.03 % ID/g | Radioactivity distribution Whole brain ([2]; 60 min after administration): 0.02 ± 0.00 % ID/g
Compound: Fc1cc2nc(-c3cncc(Cn4ccnc4)c3)n(CCC[18F])c2cc1Cl [[^18F] 500, 6-Chloro-5-fluoro-1-(3-[^18F]fluoropropyl)-2-[5-(imidazol-1-ylmethyl)pyridin-3-yl]benzimidazole]
stability in human plasma [1]: hardly metabolized and decomposed in the plasma | accumulation of radioactivity in adrenal gland vs blood and peripheral tissues ([2]; Tables 9 to 22): high accumulation of radioactivity in adrenal gland was observed, in comparison to in blood and peripheral tissues | accumulation of radioactivity in adrenal gland section (autoradiogram) ([3]; FIGS. 18 to 31): accumulation of radioactivity was selectively observed in a region in which aldosterone-producing adenoma had been pathologically observed | B2/B1 accumulation ratio ([3]; section of FIG. 17(a)): 5.63 | B2 (PSL value, aldosterone-producing adenoma) ([3]; section of FIG. 17(a), site 71a): 3619 | B1 (PSL value, normal adrenal cortex) ([3]; section of FIG. 17(a), site 72a): 643
